Test results reported in patent publication US20260055126A1, “SMALL MOLECULE COMPOUNDS WITH PHOSPHORYLATED ARYL STRUCTURES AND USE THEREOF” (HANGZHOU PHECDAMED CO., LTD., priority 2022, published 2026).
Several values for one entry are separate records, joined by “and”; a condition that tells them apart may be missing. Equal values may be shown once. Read-outs that look alike come from different tables or passages of the source.

How the values were obtained:
Caco-2 cells = assay: Permeability test on Caco2 cells; format: in vitro ADME; details: for Penetration Type: Caco2 cell model
Method: (§1) After resuscitation, the Caco-2 cells are transferred to a conventional culture dish and cultured in a high-glucose DMEM medium (containing 10% FBS) at 37° C. and 5% CO2 in an incubator. When the cells cover 80% to 95% of the bottom of the dish, they are digested with trypsin containing 0.25% EDTA to disperse them into a single cell suspension, and the cell concentration is determined using a cell counter, after that, the concentration of the cell suspension is adjusted to 2 to 2.5×10^5/mL with fresh culture medium and inoculated into a Transwell polycarbonate membrane 12-well plate, the fresh culture medium is replaced every two days in the first two weeks and once a day in the last week, the culture is continued for 19 to 21 days to obtain a fully differentiated single cell layer.

[1] = Permeability test on Caco2 cells; format: in vitro ADME; details: human, Caco-2, AP→BL
Method: as §1

TEAD family proteins = assay: Thermal shift assay, summary over all TEAD subtypes; format: binding; details: summary of Table 1
Method: (§2) The ability of the compounds to increase the melting point of purified recombinant TEAD1/2/3/4 proteins is tested using a thermal shift assay. The strength of the compound's binding to the protein and the selectivity of the compound's binding to the four TEAD subtypes are evaluated by calculating the melting point shift ΔTm−° C. […] Based on the Δ Tm value, the ability of the compound to bind to the TEAD protein is divided into four levels: ++++, +++, ++, +.
(§3) Test method of protein melting point curve: 10 μL of the protein melting point curve experimental system (10 μM TEAD protein, 50 μM test compound, SYPRO® orange (55692, sigma)) is prepared in a 384-well fluorescence quantitative PCR plate according to the following system, and reacted at 4° C. in the dark for 20 minutes. On-machine reaction: ABI QuantStudio Dx fluorescence quantitative PCR instrument; program: from 25° C. to 80° C., increasing the temperature at a rate of 0.05° C./s, and reading the fluorescence channel signal of the corresponding wavelength of SYPRO® orange every second.

[2] = target: recombinant TEAD2 protein (218-447, Uniprot ID: Q15562) (Homo sapiens (Human), UniProt Q15562); assay: Thermal shift assay (protein melting point curve), TEAD2; format: binding; details: 10 μM TEAD protein, 50 μM test compound
Method: as §2, §3

[3] = tested on: recombinant TEAD1 protein (194-411, Uniprot ID: P28347); assay: Thermal shift assay (protein melting point curve), TEAD1; format: binding; parameters: key to the marks not given beside the values; details: 10 μM TEAD protein, 50 μM test compound
Method: as §2, §3

[4] = target: recombinant TEAD4 protein central pocket (Homo sapiens (Human), UniProt Q15561); assay: Competitive thiol binding assay (CPM assay), TEAD4; details: 150 nM recombinant TEAD protein, 150 nM CPM
Method: (§4) Diluting the tested compound in gradient to 5 uL with buffer (25 mM HEPES, 150 mM NaCl, pH6.5), then adding 5 μL of the newly prepared 0.45 uM recombinant TEAD protein solution, and incubating at room temperature for 10 minutes. […] After shaking the plate at room temperature for 1 hour, measuring the fluorescence intensity (Ex/Em: 380/470 nm).

[5] = target: recombinant TEAD3 protein (218-435, Uniprot ID: Q99594) (Homo sapiens (Human), UniProt Q99594); assay: Thermal shift assay (protein melting point curve), TEAD3; format: binding; details: 10 μM TEAD protein, 50 μM test compound
Method: as §2, §3

[6] = target: recombinant TEAD1 protein central pocket (Homo sapiens (Human), UniProt P28347); assay: Competitive thiol binding assay (CPM assay), TEAD1; details: 150 nM recombinant TEAD protein, 150 nM CPM
Method: as §4

[7] = target: recombinant TEAD4 protein (217-434, Uniprot ID: Q15561) (Homo sapiens (Human), UniProt Q15561); assay: Thermal shift assay (protein melting point curve), TEAD4; format: binding; details: 10 μM TEAD protein, 50 μM test compound
Method: as §2, §3

[8] = target: recombinant TEAD2 protein central pocket (Homo sapiens (Human), UniProt Q15562); assay: Competitive thiol binding assay (CPM assay), TEAD2; details: 150 nM recombinant TEAD protein, 150 nM CPM
Method: as §4

[9] = target: recombinant TEAD3 protein central pocket (Homo sapiens (Human), UniProt Q99594); assay: Competitive thiol binding assay (CPM assay), TEAD3; details: 150 nM recombinant TEAD protein, 150 nM CPM
Method: as §4

[10] = Mouse plasma pharmacokinetic test; format: in vivo, CD-1 mice
Source text: In this example, different compounds are used to perform a mouse pharmacokinetic experiment, and the specific steps are as follows: Animal information: CD-1 mice, male, about 20 g, purchase from Beijing Weitonglihua Experimental Animal Technology Co., Ltd.
Animal dietary status: Animals are not fasted before administration and allowed to drink water freely.
Compound preparation method: for intragastric administration (IG)(G1 group), preparing with 0.5% CMC-Na, and for intravenous injection(IV) (G2 group), preparing 5% DMSO+30% PEG400+65% water. […]
Sampling time points of G1 group: 8 points in total, namely 10 min, 30 min, 1 h, 2 h, 4 h, 6 h, 8 h and 24 h after administration, among them, animals G1M01-G1M03 are sampled at 3 time points, namely 10 min, 1 h and 6 h; animals G1M04-G1M06 are sampled at 3 time points, namely 30 min, 2 h and 8 h; animals G1M07-G1M09 are sampled at 2 time points, namely 4 h and 24 h.
Sampling time points of G2 group: 9 points in total, namely 5 min, 10 min, 30 min, 1 h, 2 h, 4 h, 6 h, 8 h, 24 h after administration. It is recommended that animals G2M01-G2M03 are sampled at 3 time points, namely 5 min, 1 h, and 6 h; animals G2M04-G2M06 are sampled at 3 time points, namely 10 min, 2 h, and 8 h; animals G2M07-G2M09 are sampled at 3 time points, namely 30 min, 4 h, and 24 h.
Sample collection: On the day of the experiment, collecting approximately 0.1 mL of whole blood samples at each preset time point and placing in EDTA-K2 anticoagulant tubes.
Sample processing: Within 30 minutes after whole blood sample collection, centrifuging at 4° C., 12,000 rpm for 5 minutes to separate plasma, collecting the upper plasma sample into a sample tube, and freezing the plasma sample in a −10˜−30° C. refrigerator within 30 minutes and transferring to a −60˜−90° C. refrigerator within 24 hours.
Sample testing and data processing: LC/MS/MS testing, WinNonlin for fitting and pharmacokinetic parameter calculation.

[11] = In vitro liver microsome stability, human; format: in vitro ADME
Method: (§5) Testosterone is selected as the positive reference compound. The specific method is as follows:
(§6) Preparing 0.1MK3 PO4 (pH 7.4) buffer and 3×NADPH stock solution (6 mM, 5 mg/mL), and preheating in a 37° C. water bath; preparing spiking solution of tested compound and control compound: adding 5 μL compound stock solution (10 mM) to 95 μL acetonitrile; preparing 1.5 μM spiking solution in microsomes (0.75 mg/mL): add 1.5 μL spiking solution and 18.75 μL liver microsome solution (20 mg/mL) to 479.75 μL K3PO4 buffer; taking 30 μL spiking solution in microsomes and adding it to the multiwell plate, and incubating at 37° C. for 5 min; adding 15 μL of NADPH stock solution to each well, starting to react, and timing; adding 150 μL of acetonitrile solution containing IS at 0 min, 5 min, 15 min, 30 min, 45 min and 60 min respectively to terminate the reaction; after 10 min of oscillation, centrifuging the reaction at 6000 rpm for 15 min; taking 80 μL of supernatant from each well for LC/MS detection and calculating Ti/2.
(§7) Liver microsomes of mice, rats, dogs, and human used in the experiment are purchased from Xenotech.

[12] = In vitro liver microsome stability, mouse; format: in vitro ADME
Method: as §5, §6, §7

[13] = single replicate, read-out: Papp
[14] = CD-1, mouse, plasma, VT103 in mice, IV

Chain of recombinant TEAD1 protein central pocket (P28347 whole entry): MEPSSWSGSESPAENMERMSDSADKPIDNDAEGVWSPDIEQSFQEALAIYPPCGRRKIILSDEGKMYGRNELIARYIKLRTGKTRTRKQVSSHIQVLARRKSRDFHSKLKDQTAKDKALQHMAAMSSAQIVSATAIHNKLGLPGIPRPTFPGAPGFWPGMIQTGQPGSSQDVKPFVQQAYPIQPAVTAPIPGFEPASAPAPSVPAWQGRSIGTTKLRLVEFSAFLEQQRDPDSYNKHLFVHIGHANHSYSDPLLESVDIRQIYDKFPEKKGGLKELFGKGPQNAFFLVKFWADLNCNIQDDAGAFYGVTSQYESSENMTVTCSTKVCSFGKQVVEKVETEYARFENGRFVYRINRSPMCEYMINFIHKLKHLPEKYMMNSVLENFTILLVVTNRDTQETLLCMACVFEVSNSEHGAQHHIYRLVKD
Chain of recombinant TEAD2 protein central pocket (Q15562 whole entry): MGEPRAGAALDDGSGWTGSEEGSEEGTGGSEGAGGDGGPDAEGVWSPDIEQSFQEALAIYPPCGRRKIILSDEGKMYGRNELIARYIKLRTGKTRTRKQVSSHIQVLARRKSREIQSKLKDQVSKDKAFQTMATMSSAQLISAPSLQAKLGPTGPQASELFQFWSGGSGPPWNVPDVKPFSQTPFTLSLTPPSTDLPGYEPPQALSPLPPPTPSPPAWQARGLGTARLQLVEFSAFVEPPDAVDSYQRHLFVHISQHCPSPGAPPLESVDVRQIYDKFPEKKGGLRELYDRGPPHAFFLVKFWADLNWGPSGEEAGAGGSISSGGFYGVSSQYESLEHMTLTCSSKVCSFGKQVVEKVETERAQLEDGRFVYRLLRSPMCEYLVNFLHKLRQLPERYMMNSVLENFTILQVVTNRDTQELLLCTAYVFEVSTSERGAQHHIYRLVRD
Chain of recombinant TEAD4 protein central pocket (Q15561 whole entry): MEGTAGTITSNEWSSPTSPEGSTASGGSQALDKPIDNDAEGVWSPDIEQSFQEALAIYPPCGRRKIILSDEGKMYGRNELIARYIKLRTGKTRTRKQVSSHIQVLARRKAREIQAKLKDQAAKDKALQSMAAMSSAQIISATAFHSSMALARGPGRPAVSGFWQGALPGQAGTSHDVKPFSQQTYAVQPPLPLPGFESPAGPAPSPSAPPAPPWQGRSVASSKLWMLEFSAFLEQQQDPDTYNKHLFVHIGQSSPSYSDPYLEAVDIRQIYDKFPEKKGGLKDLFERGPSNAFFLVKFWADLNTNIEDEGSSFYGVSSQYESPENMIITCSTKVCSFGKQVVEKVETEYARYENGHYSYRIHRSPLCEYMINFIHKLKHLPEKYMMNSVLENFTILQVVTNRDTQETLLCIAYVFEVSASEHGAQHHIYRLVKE
Chain of recombinant TEAD2 protein (218-447, Uniprot ID: Q15562) (Q15562 218-447): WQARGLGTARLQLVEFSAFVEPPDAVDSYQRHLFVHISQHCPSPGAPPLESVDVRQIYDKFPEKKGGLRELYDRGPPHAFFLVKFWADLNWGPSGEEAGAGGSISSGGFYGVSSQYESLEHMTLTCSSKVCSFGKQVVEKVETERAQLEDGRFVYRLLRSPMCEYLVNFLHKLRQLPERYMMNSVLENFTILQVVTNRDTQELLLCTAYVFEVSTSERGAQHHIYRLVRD
Chain of recombinant TEAD4 protein (217-434, Uniprot ID: Q15561) (Q15561 217-434): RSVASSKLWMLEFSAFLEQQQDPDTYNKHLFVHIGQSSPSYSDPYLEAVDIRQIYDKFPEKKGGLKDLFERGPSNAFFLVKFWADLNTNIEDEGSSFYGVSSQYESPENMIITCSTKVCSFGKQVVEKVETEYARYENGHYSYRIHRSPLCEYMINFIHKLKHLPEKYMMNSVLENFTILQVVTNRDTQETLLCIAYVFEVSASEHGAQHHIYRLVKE
Chain of recombinant TEAD3 protein central pocket (Q99594 whole entry): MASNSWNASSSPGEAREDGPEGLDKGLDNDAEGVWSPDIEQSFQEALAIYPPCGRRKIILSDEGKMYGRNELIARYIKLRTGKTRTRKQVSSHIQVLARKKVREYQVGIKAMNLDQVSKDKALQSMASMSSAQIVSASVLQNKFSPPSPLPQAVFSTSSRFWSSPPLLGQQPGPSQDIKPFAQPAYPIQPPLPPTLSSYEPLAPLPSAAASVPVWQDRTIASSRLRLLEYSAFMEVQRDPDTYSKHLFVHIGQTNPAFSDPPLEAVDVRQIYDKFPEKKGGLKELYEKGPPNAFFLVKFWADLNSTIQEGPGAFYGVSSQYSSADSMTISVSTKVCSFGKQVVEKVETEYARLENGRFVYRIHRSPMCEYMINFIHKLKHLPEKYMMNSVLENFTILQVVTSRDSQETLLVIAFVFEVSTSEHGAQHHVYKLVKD
Chain of recombinant TEAD3 protein (218-435, Uniprot ID: Q99594) (Q99594 218-435): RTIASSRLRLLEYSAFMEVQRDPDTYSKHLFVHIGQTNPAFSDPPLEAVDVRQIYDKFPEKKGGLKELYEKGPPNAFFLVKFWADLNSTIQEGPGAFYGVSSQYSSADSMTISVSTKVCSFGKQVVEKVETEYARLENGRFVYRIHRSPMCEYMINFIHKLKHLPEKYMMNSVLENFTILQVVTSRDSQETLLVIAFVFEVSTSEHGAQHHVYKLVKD

COCCc1ccc(OCC(O)CNC(C)C)cc1 (stereo not shown) [Metoprolol]
Papp (Caco-2 cells; AP→BL, single replicate): 18.4 10^−6 cm/s | Penetration Type (Caco-2 cells): High | Papp at 120 min [1, 13]: 17.8 ×10⁻⁶ cm/s

O=C1OC2(c3ccc(O)cc3Oc3cc(O)ccc32)c2ccccc21 [fluorescein]
Papp (Caco-2 cells; AP→BL, single replicate): 0.334 10^−6 cm/s | Receiving chamber concentration Area ratio/OD (Caco-2 cells; AP→BL, single replicate): 4.40E+07 and 4.05E+07 | Penetration Type (Caco-2 cells): Zero | Papp at 120 min ([1]; n = 2, read-out: Papp average value): 0.349 ×10⁻⁶ cm/s | Papp at 120 min [1, 13]: 0.364 ×10⁻⁶ cm/s

O=P1(c2ccc(Nc3ccc(C(F)(F)F)cc3)c(-c3ncccn3)c2)CC(CO)C1 (stereo not shown) [Compound 21]
binding ability to each subtype of TEAD family proteins (TEAD family proteins): good binding abilities | Δ T m (TEAD2) [2]: ++++ | Δ T m (TEAD1) [3]: ++++ | IC50 [4]: 110 nM | Δ T m (TEAD3) [5]: +++ | IC50 [6]: 200 nM | Δ T m (TEAD4) [7]: ++++ | IC50 [8]: 310 nM

CNS(=O)(=O)c1ccc(Nc2ccc(C(F)(F)F)cc2)c(-c2cn(C)cn2)c1 [VT103, reference compound]
IC50 [9]: 2700 nM | IC50 [4]: 2500 nM | IC50 [6]: 1200 nM | concentration at 24 h ([10]; CD-1, mouse, plasma, oral, VT103 in mice, IG 7 mg/kg, converted from ng/ml, read-out: blood concentration after 24 hours): 828 nM | bioavailability ([10]; CD-1, mouse, plasma, po, 7 mg/kg, VT103 in mice): 75% | concentration at 24 h ([10]; CD-1, mouse, plasma, VT103 in mice, 7 mg/kg oral/IG, read-out: plasma drug concentration after 24 hours C24h): 340 ng/mL | clearance [10, 14]: 4.7 mL/min/kg | half-life [10, 14]: 13.2 h | Vd ([10]; CD-1, mouse, plasma, VT103 in mice, IV, read-out: VSS): 4.5 L/kg | Cmax ([10]; CD-1, mouse, plasma, VT103 in mice, per oral (PO) 7 mg/kg, read-out: Cmax): 896 ng/mL | IC50 [8]: 880 nM

Cn1cnc(-c2cc(P(C)(C)=O)ccc2Nc2ccc(C(F)(F)F)cc2)c1 [Compound 64]
binding ability to each subtype of TEAD family proteins (TEAD family proteins): good binding abilities | Δ T m (TEAD1) [3]: ++++ | metabolic stability ([11]; human liver microsome environment): good metabolic stabilities | human half-life ([11]; human liver microsomes): > 3.1 h | F % ([10]; CD-1 mice, IG 10 mg/kg vs IV 1 mg/kg): 87.1% | AUC0-t ([10]; CD-1 mice, single IG 10 mg/kg): 57458 ng·h/mL | AUC0-∞ ([10]; CD-1 mice, single IG 10 mg/kg): 69572 ng·h/mL | Cmax ([10]; CD-1 mice, single IG 10 mg/kg): 4063 ng/mL | MRT0-t ([10]; CD-1 mice, single IG 10 mg/kg): 8.16 h | MRT0-∞ ([10]; CD-1 mice, single IG 10 mg/kg): 13.3 h | Tmax ([10]; CD-1 mice, single IG 10 mg/kg): 2.67 h | t1/2 ([10]; CD-1 mice, single IG 10 mg/kg): 9.43 h | AUC0-t ([10]; CD-1 mice, single IV 1 mg/kg): 6596 ng·h/mL | AUC0-∞ ([10]; CD-1 mice, single IV 1 mg/kg): 7208 ng·h/mL | CL ([10]; CD-1 mice, single IV 1 mg/kg): 2.33 mL/min/kg | MRT0-t ([10]; CD-1 mice, single IV 1 mg/kg): 5.85 h | MRT0-∞ ([10]; CD-1 mice, single IV 1 mg/kg): 8.26 h | Vss ([10]; CD-1 mice, single IV 1 mg/kg): 1.15 L/kg | t1/2 ([10]; CD-1 mice, single IV 1 mg/kg): 6.98 h | pharmacokinetic properties in mice ([10]; mice): good pharmacokinetic properties | metabolic stability ([12]; mouse liver microsome environment): good metabolic stabilities | mouse half-life ([12]; mouse liver microsomes): > 3.1 h

CCP(=O)(CC)c1ccc(Nc2ccc(C(F)(F)F)cc2)c(-c2cn(C)cn2)c1 [Compound 76]
binding ability to each subtype of TEAD family proteins (TEAD family proteins): good binding abilities | Δ T m (TEAD2) [2]: ++++ | Δ T m (TEAD1) [3]: ++++ | IC50 [9]: 710 nM | IC50 [4]: 220 nM | Δ T m (TEAD3) [5]: +++ | IC50 [6]: 340 nM | Δ T m (TEAD4) [7]: ++++ | IC50 [8]: 530 nM
